Consider twelve molecules from patent publication US12084407B2, “Cannabigerol derivatives and use thereof as cannabinoid receptor modulators” (CANOPY GROWTH CORPORATION, priority 2019, dated 2024).

pIC50: −log10 of the molar value. Where two headings read alike, the source gives them in different places.

The target in one test is T1, human CB2 receptor (Homo sapiens, UniProt P34972).
T1 construct: host or cells: CHO-K1
In words: CB2 radioligand competitive binding assay ([3H]CP 55,940 displacement). As to conditions: for Selectivity CB2: fold difference in selectivity between CB1 and CB2 binding, in the column of the receptor with the higher binding affinity. On the procedure: Compounds of the present disclosure were tested for CB1 receptor binding affinity and for CB2 receptor binding affinity. As used herein, “binding affinity” is represented by the IC50 value, which was experimentally determined as described herein. The lower the IC50 value the higher the binding affinity. A compound of the present disclosure may be said to have “binding selectivity” if it has a higher binding affinity for one receptor compared to the other.
The membranes were prepared from CHO-K1 (Chinese hamster ovary) cells stably transfected with the human CB2 receptor (Cat. #ES-111-C; Perkin Elmer, Boston, MA). The cells were grown adherently and maintained in Ham's F12 medium containing 10% fetal bovine serum (FBS), penicillin, streptomycin and geneticin (G418) at 37° C. in a humid atmosphere of 5% CO2 following the manufacturer's instructions.
For membrane preparation the cells were washed with PBS and scraped off the plates in cold homogenization buffer (25 mM HEPES (pH 7.4), 2 mM EDTA) containing protease inhibitor cocktail (Sigma Cat. #P8340). The cell suspension was homogenized with a Pro-PK-01200D Polytron Homogenizer (Pro Scientific) and then centrifuged for 30 min at 120,000×g. The supernatant was discarded and the pellet was re-suspended in the homogenization buffer and stored at −80° C. until the time of use.
In this experiment, 3H radiolabeled CP 55,940, i.e. [3H]CP 55,940 (Perkin Elmer, Boston, MA), was used as a radioligand for the CB2 receptor to determine the binding affinity of compounds for the CB2 receptor (Scheme 7; above).
The competition binding experiments (single dose and dose-response) were performed by incubating 0.6 nM of [3H]CP55,940 (specific activity 101 Ci/mmol, Perkin Elmer) and different concentrations of compounds disclosed herein with membranes prepared as above from CHO-K1 cells expressing human CB2 receptor (1 μg of protein/well), 50 mM Tris-HCl (pH 7.4), 5 mM MgCl2, 1 mM CaCl2, and 2 mg/mL BSA.
For the single dose experiments, the compound stocks (usually 10 mM in DMSO) were diluted to working stocks in the binding buffer to give the final compound concentrations of 10 μM and 1 μM. For the dose-response experiments the test compounds were sequentially diluted to provide the desired concentration range for the IC50 determination. In each case the compounds were pre-incubated with the membrane for 20 min, before adding the radioligand.
After incubation with the radioligand for 60 min at 37° C., the incubation was terminated by rapid filtration of assay mixture through MultiScreen®HTS^+ 96-well filter plates (Millipore, Cat. #MSFCNXB), pre-soaked for 60 min with 50 mM Tris-HCl (pH 7.4) containing 0.33% polyethylenimine (PEI). The nonspecific binding (NSB) was determined in the presence of 10 μM unlabelled CP55,940. After drying the filter plate at 50° C. for at least 60 min, the filter-bound radioactivity was determined by scintillation spectrometry using the 1450 MicroBeta Plate Counter (Perkin Elmer, Boston, MA). From the dose-response experiments, the IC50 values were determined (see Table 1, CB2 IC50).
Where the test compound had about the same affinity for both receptors, this is represented by a value of 1.00 in the column for both receptors.

In another test the target is T2, human CB1 receptor (Homo sapiens, UniProt P21554).
T2 construct: host or cells: CHO-K1
T2 sequence (P21554 whole entry): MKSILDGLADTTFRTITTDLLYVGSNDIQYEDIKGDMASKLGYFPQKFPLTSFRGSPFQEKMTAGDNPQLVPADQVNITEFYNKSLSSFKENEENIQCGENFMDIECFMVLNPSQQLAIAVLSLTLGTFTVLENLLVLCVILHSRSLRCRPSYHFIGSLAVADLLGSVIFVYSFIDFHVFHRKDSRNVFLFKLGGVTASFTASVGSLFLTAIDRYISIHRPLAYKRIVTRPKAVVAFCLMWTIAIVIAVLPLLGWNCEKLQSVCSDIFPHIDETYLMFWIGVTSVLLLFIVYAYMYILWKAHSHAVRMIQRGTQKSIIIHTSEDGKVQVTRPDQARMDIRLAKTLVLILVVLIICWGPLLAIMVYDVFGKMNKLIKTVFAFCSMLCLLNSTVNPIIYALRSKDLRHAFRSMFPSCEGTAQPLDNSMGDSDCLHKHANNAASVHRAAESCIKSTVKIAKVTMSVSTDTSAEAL
In words: CB1 radioligand competitive binding assay ([3H]CP 55,940 displacement).

[1] abbreviates: 0.6 nM [3H]CP55,940, membranes from CHO-K1 cells expressing human CB2 receptor, dose-response, read-out: CB2 IC50.
The mark [2] stands for this setting: 0.8 nM [3H]CP 55,940, membranes from CHO-K1 cells expressing human CB1 receptor, dose-response, read-out: CB1 IC50.

T1 sequence (P34972 whole entry): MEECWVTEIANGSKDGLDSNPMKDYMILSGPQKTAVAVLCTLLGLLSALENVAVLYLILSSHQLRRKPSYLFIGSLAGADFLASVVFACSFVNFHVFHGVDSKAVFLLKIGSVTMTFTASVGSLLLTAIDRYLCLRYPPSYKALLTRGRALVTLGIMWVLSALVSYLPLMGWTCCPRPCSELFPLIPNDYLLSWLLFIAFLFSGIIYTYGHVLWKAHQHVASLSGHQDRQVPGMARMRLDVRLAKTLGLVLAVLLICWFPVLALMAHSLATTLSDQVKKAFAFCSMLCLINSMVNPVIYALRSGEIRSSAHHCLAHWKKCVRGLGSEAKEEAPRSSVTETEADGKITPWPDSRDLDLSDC

As usually defined, the pIC50 is the negative decadic logarithm of the IC50, by convention in mol/L. Take `CCCCCc1cc(O)c(C/C=C(\C)CCC=C(C)C)c(O)c1S(=O)(=O)NC(C)C` [Compound 23, 3-(3,7-dimethylocta-2,6-dien-1-yl)-2,4-dihydroxy-N-isopropyl-6-pentylbenzenesulfonamide]: the negative-log IC50 (pIC50) on human CB2 receptor (setting [1]) is 6.31 to 7.00; on human CB1 receptor (setting [2]), below 6.00. Further, the “Selectivity CB2” value at human CB2 receptor came out at 18.43 fold.
As for `CCCCCc1cc(O)c(C/C=C(\C)CCC=C(C)C)c(O)c1S(=O)(=O)Oc1ccccc1` [Compound 67, phenyl-3-(3,7-dimethylocta-2,6-dien-1-yl)-2,4-dihydroxy-6-pentylbenzenesulfonate], the pIC50 at human CB2 receptor (setting [1]) is 6.31 to 7.00; on human CB1 receptor (setting [2]) it was below 6.00. Further, at human CB2 receptor, the “Selectivity CB2” value stood at 20.83 fold.
Turning to `CCCCCc1cc(O)c(C/C=C(\C)CCC=C(C)C)c(O)c1S(C)(=O)=O` [Compound 3, 2-(3,7-dimethylocta-2,6-dien-1-yl)-4-(methylsulfonyl)-5-pentylbenzene-1,3-diol], the values for the pIC50 on human CB2 receptor (setting [1]) and at human CB1 receptor (setting [2]) were 6.00 to 6.30 and below 6.00, respectively. The “Selectivity CB2” value at human CB2 receptor was found to be 1.47 fold.
As for `CCCCCc1cc(O)c(C/C=C(\C)CCC=C(C)C)c(O)c1S(=O)(=O)Nc1ccccc1` [Compound 24, 3-(3,7-dimethylocta-2,6-dien-1-yl)-2,4-dihydroxy-6-pentyl-N-phenylbenzenesulfonamide], the pIC50 at human CB2 receptor (setting [1]) was above 7.00; on human CB1 receptor (setting [2]), 6.31 to 7.00. In addition, the “Selectivity CB2” value at human CB2 receptor was 61.50 fold.
As to `CCCCCc1cc(O)c(C/C=C(\C)CCC=C(C)C)c(O)c1S(=O)(=O)NC1CCC1` [Compound 63, N-cyclobutyl-3-(3,7-dimethylocta-2,6-dien-1-yl)-2,4-dihydroxy-6-pentylbenzenesulfonamide], the pIC50 was above 7.00 on human CB2 receptor (setting [1]) and below 6.00 on human CB1 receptor (setting [2]). In addition, the “Selectivity CB2” value on human CB2 receptor is 24.80 fold.
`CCCCCc1cc(O)c(C/C=C(\C)CCC=C(C)C)c(O)c1C(=O)NS(=O)(=O)c1ccccc1` [Compound 58, 3-(3,7-dimethylocta-2,6-dien-1-yl)-2,4-dihydroxy-6-pentyl-N-(phenylsulfonyl)benzamide]: the pIC50 at human CB2 receptor (setting [1]) and at human CB1 receptor (setting [2]) was below 6.00 in each case. Moreover, the “Selectivity CB2” value at human CB2 receptor came out at 1.88 fold.
With `CCCCCc1cc(O)c(C/C=C(\C)CCC=C(C)C)c(O)c1S(=O)(=O)NC` [Compound 20, 3-(3,7-dimethylocta-2,6-dien-1-yl)-2,4-dihydroxy-N-methyl-6-pentylbenzenesulfonamide], on human CB2 receptor, the pIC50 was 6.31 to 7.00 and the “Selectivity CB2” value was determined as 3.93 fold. On human CB1 receptor, the pIC50 was below 6.00.
For the molecule `CCCCCc1cc(O)c(C/C=C(\C)CCC=C(C)C)c(O)c1S(=O)(=O)NC1CCCCC1` [Compound 62, N-cyclohexyl-3-(3,7-dimethylocta-2,6-dien-1-yl)-2,4-dihydroxy-6-pentylbenzenesulfonamide], the negative logarithm of the IC50 (pIC50) was 6.31 to 7.00 at human CB2 receptor (setting [1]) and below 6.00 on human CB1 receptor (setting [2]). Also, the “Selectivity CB2” value on human CB2 receptor is 9.04 fold.
Take `CCCCCCNS(=O)(=O)c1c(CCCCC)cc(O)c(C/C=C(\C)CCC=C(C)C)c1O` [Compound 64, 3-(3,7-dimethylocta-2,6-dien-1-yl)-N-hexyl-2,4-dihydroxy-6-pentylbenzenesulfonamide]: the figures for the negative-log IC50 (pIC50) at human CB2 receptor (setting [1]) and on human CB1 receptor (setting [2]) were 6.31 to 7.00 and below 6.00, respectively. Moreover, the “Selectivity CB2” value on human CB2 receptor was 7.89 fold.
In the same order, the values of `CCCCCc1cc(O)c(C/C=C(\C)CCC=C(C)C)c(O)c1S(=O)(=O)N1CCOCC1` [Compound 28, 2-(3,7-dimethylocta-2,6-dien-1-yl)-4-(morpholinosulfonyl)-5-pentylbenzene-1,3-diol] are above 7.00, 6.00 to 6.30 and 266.67 fold.
For the molecule `C=CCNS(=O)(=O)c1c(CCCCC)cc(O)c(C/C=C(\C)CCC=C(C)C)c1O` [Compound 65, N-allyl-3-(3,7-dimethylocta-2,6-dien-1-yl)-2,4-dihydroxy-6-pentylbenzenesulfonamide], the figures for the pIC50 at human CB2 receptor (setting [1]) and on human CB1 receptor (setting [2]) were above 7.00 and below 6.00, respectively. In addition, the “Selectivity CB2” value on human CB2 receptor is 25.50 fold.
As to `CCCCCc1cc(O)c(C/C=C(\C)CCC=C(C)C)c(O)c1C(=O)NS(=O)(=O)c1cccnc1` [Compound 66, 3-(3,7-dimethylocta-2,6-dien-1-yl)-2,4-dihydroxy-6-pentyl-N-(pyridin-3-ylsulfonyl)benzamide], the negative-log IC50 (pIC50) on human CB2 receptor (setting [1]) and on human CB1 receptor (setting [2]) was below 6.00 in each case. Further, the “Selectivity CB2” value at human CB2 receptor was 1.88 fold.
